Assays:
[1] = Selectivity index, ratio of CC50 for human Hep2 cells to IC50 for Coxsackievirus B3 Nancy infected in human Hep2 cells; assay type: toxicity, cell-based; details: HEp-2 cells, read-out: Ratio CC50/IC50
Poliovirus 1 = experiment: Antiviral activity against Poliovirus 1 LSc-2ab infected in human Hep2 cells assessed as inhibition of virus-induced cytopathic effect after 48 hrs by neutral red uptake assay; assay type: functional, cell-based
Coxsackievirus B1 [2] = experiment: Antiviral activity against Coxsackievirus B1 Connecticut 5 infected in human Hep2 cells assessed as inhibition of virus-induced cytopathic effect after 48 hrs by neutral red uptake assay; assay type: functional, cell-based
[3] = Cytotoxicity against human Hep2 cells assessed as decrease in cell viability after 48 hrs by neutral red uptake assay; assay type: cell-based; details: HEp-2 cells
Coxsackievirus B3 = experiment: Antiviral activity against Coxsackievirus B3 Nancy infected in human Hep2 cells assessed as inhibition of virus-induced cytopathic effect after 48 hrs by neutral red uptake assay; assay type: functional, cell-based
[4] = Selectivity index, ratio of CC50 for human Hep2 cells to IC50 for Coxsackievirus B1 Connecticut 5 infected in human Hep2 cells; assay type: toxicity, cell-based; details: HEp-2 cells, read-out: Ratio CC50/IC50
[5] = Selectivity index, ratio of CC50 for human Hep2 cells to IC50 for Poliovirus 1 infected in human Hep2 cells; assay type: toxicity, cell-based; details: HEp-2 cells, read-out: Ratio CC50/IC50
Coxsackievirus B1 [6] = experiment: Antiviral activity against Coxsackievirus B1 infected in new born ICR mouse assessed as increase in mean survival time at 50 mg/kg, sc administered for 12 days; assay type: functional
Coxsackievirus B1 [7] = experiment: Antiviral activity against Coxsackievirus B1 infected in new born ICR mouse assessed as protection index at 50 mg/kg, sc administered for 12 days (reference value: 0%); assay type: functional
Coxsackievirus B1 [8] = experiment: Antiviral activity against Coxsackievirus B1 infected in new born ICR mouse assessed as mortality at 50 mg/kg, sc administered for 12 days (reference value: 100%); assay type: functional; details: Enterovirus B, 288 h
Coxsackievirus B1 [9] = experiment: Antiviral activity against Coxsackievirus B1 infected in new born ICR mouse assessed as protection index at 75 mg/kg, sc administered for 12 days (reference value: 0%); assay type: functional
Coxsackievirus B1 [10] = experiment: Antiviral activity against Coxsackievirus B1 infected in new born ICR mouse assessed as increase in mean survival time at 75 mg/kg, sc administered for 12 days; assay type: functional
Coxsackievirus B1 [11] = experiment: Antiviral activity against Coxsackievirus B1 infected in new born ICR mouse assessed as mortality at 75 mg/kg, sc administered for 12 days (reference value: 100%); assay type: functional; details: Enterovirus B, 288 h
Coxsackievirus B1 [12] = experiment: Antiviral activity against Coxsackievirus B1 infected in new born ICR mouse assessed as increase in mean survival time at 25 mg/kg, sc administered for 12 days; assay type: functional
Coxsackievirus B1 [13] = experiment: Antiviral activity against Coxsackievirus B1 infected in new born ICR mouse assessed as mortality at 25 mg/kg, sc administered for 12 days (reference value: 100%); assay type: functional; details: Enterovirus B, 288 h
Coxsackievirus B1 [14] = experiment: Antiviral activity against Coxsackievirus B1 infected in new born ICR mouse assessed as protection index at 25 mg/kg, sc administered for 12 days (reference value: 0%); assay type: functional
[15] = Enterovirus B, Nancy, HEp-2, 48 h, read-out: IC50
[16] = Enterovirus B, Connecticut 5, HEp-2, 48 h, read-out: IC50
[17] = Enterovirus C, LSc-2ab, HEp-2, 48 h, read-out: IC50

SMILES | selectivity ratio [1] | IC50 (Poliovirus 1) | IC50 (Coxsackievirus B1 [2]) | CC50 at 48 h [3] [µM] | IC50 (Coxsackievirus B3; [15]) [µM] | IC50 (Coxsackievirus B1 [2]; [16]) [µM] | IC50 (Coxsackievirus B3) | selectivity ratio [4] | IC50 (Poliovirus 1; [17]) [µM] | selectivity ratio [5] | other results
N#Cc1cc([N+](=O)[O-])ccc1Sc1ccccc1Cl | 5.4 | Not Active | Not Active | 53.8 | 9.9 | – | – | – | – | – | –
CC1(C)CC(Nc2ccc([N+](=O)[O-])cc2C#N)CC(C)(C)N1 | 1.5 | Not Active | Not Active | 675 | 426 | – | – | – | – | – | –
N#Cc1cc([N+](=O)[O-])ccc1Oc1ncn(-c2ccccc2)n1 | – | Not Active | – | 571 | – | 190 | Not Active | 3 | – | – | –
N#Cc1cc([N+](=O)[O-])ccc1N1C[C@@H]2C[C@H](C1)c1cccc(=O)n1C2 | – | – | – | 492 | – | 152 | Not Active | 3.2 | 234 | 2.1 | –
N#Cc1cc([N+](=O)[O-])ccc1Oc1ccccc1-c1cn2ccccc2n1 | – | Not Active | Not Active | 718 | – | – | Not Active | – | – | – | –
N#Cc1cc([N+](=O)[O-])ccc1Oc1c(F)cccc1F | – | – | – | 355 | – | 0.7 | Not Active | 507 | 6.8 | 52.2 | MST (Coxsackievirus B1 [6]): 5.4 days; PI (Coxsackievirus B1 [7]): 33.3%; mortality at 50 mg/kg (Coxsackievirus B1 [8]): 66.7%
Cc1ccc(C(C)C)c(Oc2ccc([N+](=O)[O-])cc2C#N)c1 | – | Not Active | – | 94.3 | – | 16.2 | Not Active | 5.8 | – | – | –
N#Cc1cc([N+](=O)[O-])ccc1Oc1ccc(Cl)c(Cl)c1 | 182 | – | – | 493 | 2.7 | 0.8 | – | 587 | 6.8 | 72.5 | PI (Coxsackievirus B1 [9]): 0%; MST (Coxsackievirus B1 [10]): 3 days; mortality at 75 mg/kg (Coxsackievirus B1 [11]): 100%
N#Cc1cc([N+](=O)[O-])ccc1Oc1c(F)cc(F)cc1F | – | – | – | 518 | – | 0.75 | Not Active | 690 | 2.7 | 192 | MST (Coxsackievirus B1 [12]): 2.6 days; mortality at 25 mg/kg (Coxsackievirus B1 [13]): 88.4%; PI (Coxsackievirus B1 [14]): 11.6%
N#Cc1cc([N+](=O)[O-])ccc1Oc1c(Cl)c(Cl)c(Cl)c(Cl)c1Cl | 20.5 | Not Active | – | 119 | 5.8 | 10.9 | – | 10.9 | – | – | –
COc1ccc(Oc2ccc([N+](=O)[O-])cc2C#N)c(C(C)(C)C)c1 | – | Not Active | Not Active | 22 | – | – | Not Active | – | – | – | –
N#Cc1cc([N+](=O)[O-])ccc1Oc1ccc(F)c(F)c1 | – | – | – | 320 | – | 0.8 | Not Active | 405 | 2.7 | 118 | MST (Coxsackievirus B1 [6]): 5 days; PI (Coxsackievirus B1 [7]): 50%; mortality at 50 mg/kg (Coxsackievirus B1 [8]): 50%
Cc1c(Br)cc(Br)c(Oc2ccc([N+](=O)[O-])cc2C#N)c1Br | 19.6 | Not Active | – | 570 | 29.6 | 256 | – | 2.2 | – | – | –
